Test results reported in patent publication US11744840B2, “N-palmitoyl-D-glucosamine in a micronized form” (Innovet Italia S.R.L., priority 2018, dated 2023).

Tests used:
[1] = tested on: carrageenan edema in the rat's paw; assay: carrageenan edema in the rat's paw, physical forms of PGA and Curcumin; type: in vivo; conditions: for edema as a percentage of the edema produced only by carrageenan (value of 100) / pharmacological effect on carrageenan edema (in words): rat; for edema as a percentage of the edema produced only by carrageenan (value of 100): PGA 30, PGA-m 20, CUR-m 10, PGACUR-m 30, PGA-sm 20 mg/kg; for pharmacological effect on carrageenan edema (in words): PGA 30, PGA-m 20, PGA-sm 20, CUR 10, PGACUR-m 30 mg/kg
Protocol: The experimental model of carrageenan edema was used in the rat's paw, which determines epithelial dysfunction at the paw level.
The experimental model of carrageenan edema in the paw was induced by sub-plantar injection of a carrageenan solution (containing 50 μl of sterile saline containing 1% carrageenan) into the right paw of the animal (rat).
At specific time intervals the plantar volume was measured by a plethysmometer (Ugo Basile, Milan, Italy). The increase in plantar volume was evaluated as the difference between the value obtained in the specific time intervals and the volume at baseline (time 0) measured immediately before the administration of carrageenan.
The following physical forms of N-palmitoyl-D-glucosamine were tested: • Non-micronized N-palmitoyl-D-glucosamine (PGA); • Micronized N-palmitoyl-D-glucosamine (PGA-m); • N-palmitoyl-D-glucosamine co-micronized with Curcumin (PGACUR-m); • N-palmitoyl-D-glucosamine in a sub-micron form (PGA-sm).
The following physical form of Curcumin was also tested: • Micronized Curcumin (CUR-m)
In all cases PGA was tested as a PGA/fatty acid mixture.
The thus obtained results, expressed as a percentage of the edema produced only by carrageenan (indicated with a value of 100), are as follows: […]

[2] = tested on: carrageenan edema in the rat's paw; assay: carrageenan edema in the rat's paw, PGA with or without Polydatin; type: in vivo; conditions: Wistar rat, doses per group b126-b129, unit assumed
Protocol: Also in this case, the experimental model of carrageenan edema in the rat's paw was used, which determines epithelial dysfunction at the paw level.
The edema was induced by the sub-plantar injection of 50 μl of an aqueous 1% carrageenan solution. At time intervals (30 min, 1 h, 2 h, 3 h, 4 h, 5 h, 6 h) the volume of the injected paw was evaluated by means of a plethysmometer (Ugo Basile, Milan—Italy). The following physical forms of N-palmitoyl-D-glucosamine with or without Polydatin were tested in groups of 10 animals (Wistar strain weighing between 130 and 160 g) for each group, in the dosages indicated in brackets:
Group B) Carrageenan+micronized Palmitoylglucosamine (10 mg/kg)
Group C) Carrageenan+micronized Polydatin (1 mg/kg)
Group D) Carrageenan+Palmitoylglucosamine (10 mg/kg)+Polydatin (1 mg/kg) [mixed]
Group E) Carrageenan+Palmitoylglucosamine and co-micronized Polydatin [10:1] (11 mg/kg)

| SMILES | edema as a percentage of the edema produced only by carrageenan (value of 100) ([1]; 30 min) [%] | edema as a percentage of the edema produced only by carrageenan (value of 100) ([1]; 1 hr) [%] | edema as a percentage of the edema produced only by carrageenan (value of 100) ([1]; 2 hr) [%] | edema as a percentage of the edema produced only by carrageenan (value of 100) ([1]; 3 hr) [%] | edema as a percentage of the edema produced only by carrageenan (value of 100) ([1]; 4 hr) [%] | edema as a percentage of the edema produced only by carrageenan (value of 100) ([1]; 5 hr) [%] | Paw volume ([2]; 30 min from treatment) [mL] | Paw volume ([2]; 1 h from treatment) [mL] | Paw volume ([2]; 2 h from treatment) [mL] | Paw volume ([2]; 3 h from treatment) [mL] | Paw volume ([2]; 4 h from treatment) [mL] | Paw volume ([2]; 5 h from treatment) [mL] | Paw volume ([2]; 6 h from treatment) [mL] | pharmacological effect on carrageenan edema (in words) [1] | other results |
| --- | --- | --- | --- | --- | --- | --- | --- | --- | --- | --- | --- | --- | --- | --- | --- |
| COc1cc(/C=C/C(=O)CC(=O)/C=C/c2ccc(O)c(OC)c2)ccc1O [CUR-m, Curcumin, reference compound] | 100.3 | 95.4 | 95.1 | 94.8 | 96.2 | 97.4 | – | – | – | – | – | – | – | – | pharmacological effect on carrageenan edema (in words) ([1]; listed as micronized CUR): no significant pharmacological effect; pharmacological effect on carrageenan edema (in words) ([1]; listed as micronized Curcumin): almost total inactivity |
| OC[C@H]1O[C@@H](Oc2cc(O)cc(/C=C/c3ccc(O)cc3)c2)[C@H](O)[C@@H](O)[C@@H]1O [Group C), Polydatin, reference compound] | – | – | – | – | – | – | 0.21 | 0.32 | 0.69 | 1.03 | 1.19 | 1.28 | 0.95 | – | – |
| CCCCCCCCCCCCCCCC(=O)N[C@H]1C(O)O[C@H](CO)[C@@H](O)[C@@H]1O (stereo partly drawn) [PGA, N-palmitoyl-D-glucosamine] | 100.0 | 100.0 | 100.0 | 100.0 | 100.0 | 100.0 | – | – | – | – | – | – | – | – | melting point: 202 °C (dec.); pharmacological effect on carrageenan edema (in words) ([1]; listed as PGA (non-micronized)): no pharmacological effect; pharmacological effect on carrageenan edema (in words) ([1]; listed as non-micronized PGA): total inactivity |
| CCCCCCCCCCCCCCCC(=O)N[C@H]1C(O)O[C@H](CO)[C@@H](O)[C@@H]1O (stereo partly drawn) [PGA-m, N-palmitoyl-D-glucosamine] | 100.0 | 92.2 | 80.1 | 71.5 | 70.4 | 75.5 | 0.23 | 0.33 | 0.81 | 1 | 1.21 | 1.33 | 1.05 | apparent pharmacological effect | reduction of the Carrageenan edema ([1]; PGA-m 20 mg/Kg, co-micronized PGA-m 20 mg/Kg + CUR 10 mg/kg, corresponds to the 5 hr values of Table 1): 24.5% |
| CCCCCCCCCCCCCCCC(=O)N[C@H]1C(O)O[C@H](CO)[C@@H](O)[C@@H]1O (stereo partly drawn) [PGA-sm, N-palmitoyl-D-glucosamine] | 100.0 | 100.0 | 98.0 | 97.0 | 98.0 | 98.0 | – | – | – | – | – | – | – | no significant pharmacological effect | pharmacological effect on carrageenan edema (in words) ([1]; listed as sub-micron PGA): markedly pejorative activity compared to the micronized PGA; pharmacological effect on carrageenan edema (in words) ([1]; listed as sub-micronized PGA): almost total inactivity |
